Structures can show the parent of a compound that is named as a salt.
How the values were obtained:
[1] = system: patients with NSF; details: two patients; cited from earlier work
[2] = system: patients with NSF; assay: Knee joint flexion contracture measured with a goniometer in treated NSF patients; type: in vivo, human
Protocol: (§1) Two patients diagnosed with NSF that was associated with gadolinium exposure were assessed and treated with orally administered imatinib mesylate over an extended period of time. Their progress was assessed as were any side effects of the treatment.
Loss of knee joint extension (flexion contracture) was assessed by measuring maximal passive knee extension, with the patient in a supine position, using a goniometer. The center of the goniometer was placed at the lateral femoral condyle, with the proximal arm positioned along the longitudinal axis of the femur and the distal arm aligned with the long axis of the tibia. Measurements were rounded to the nearest multiple of 5 degrees. Although flexion contractures appeared symmetric in both patients, the knee with the greater flexion contracture at baseline was assessed for change at subsequent visit.

[3] = system: patients with NSF; assay: Skin biopsy histology before and after IM (hematoxylin & eosin, type I procollagen staining); type: in vivo, human
From the text: FIG. 2 (A and B) are photographs of skin biopsies from Patient 1 before (FIG. 2A) and after 15 weeks (FIG. 2B) of treatment with IM, at similar magnification and under equivalent lighting. […] (hematoxylin & eosin staining, 12.5× total magnification). The grey line in each panel identifies the level of the eccrine ducts, structures that occur at a relatively uniform depth in a particular region of the body.
FIG. 3 (A and B) are photographs of skin biopsies from Patient 1 before (FIG. 3A) and after 15 weeks (FIG. 3B) of treatment with IM, at similar magnification and under equivalent lighting. […] (type I procollagen immunohistochemical staining, 12.5× magnification) The grey line in each panel identifies the level of the eccrine ducts.
Skin biopsies performed both before and after initial dosing of Patient 1 with IM were compared. Both specimens were obtained from the same anatomic area, with the second biopsy taken immediately adjacent to the resolved scar from the prior procedure, but each biopsy had been performed using different technique (The first biopsy was an excisional biopsy, the second was a punch biopsy). […] Furthermore, in the specimen obtained after IM treatment, fewer type I procollagen^+ cells were present in the upper dermis (FIG. 3B). The second biopsy contained 124 ppm (μg/g, dry weight) of gadolinium, essentially unchanged from that of the pretreatment biopsy (High et al.: Gadolinium is quantifiable within the tissue of patients with nephrogenic systemic fibrosis, J Am Acad Dermatol 2007).

[4] = system: patients with NSF; assay: Skin involvement by modified Rodnan skin score (mRSS) in treated NSF patients; type: in vivo, human
Protocol: as §1
They were offered treatment with imatinib mesylate. […] Shortly thereafter, […] PD catheter stopped functioning and they began to undergo HD.
To determine whether a higher dose of IM might yield further improvement in their skin changes, their daily dose was increased from 400 mg to 600 mg at the end of January 2007. Because of a hospitalization in February 2007, for evaluation and treatment of chronic gastrointestinal bleeding, they stopped taking IM for 2 weeks. They resumed taking daily oral IM 600 mg, one week later, but they again stopped taking it after 6 days, when they underwent elective surgical repair of an abdominal hernia. They once again resumed taking oral IM 400 mg daily in May 2007. However, because of difficulty controlling their INR, they discontinued IM two weeks later. Off of IM, their Coumadin anticoagulation has been managed more easily.
Skin involvement was assessed using the modified version of the Rodnan skin score (mRSS). The same examiner evaluated each patient at each visit. Seventeen skin sites were evaluated: the face, upper arms, […], dorsum of the hands, fingers, chest, abdomen, thighs, […], and feet. Each site was graded: 0=normal skin, 1=thickened skin, 2=thickened and unable to pinch, or 3=thickened and unable to move. The maximum total score is 51.

[5] = system: patients with NSF; assay: Adverse effects in the two treated NSF patients; type: in vivo, human; details: both patients
Protocol: as §1
Patient 1 developed gastrointestinal upset that resolved when corticosteroid replacement with 7.5 mg/day oral prednisone was initiated to treat adrenal insufficiency 17 weeks after re-initiation of IM, despite continuation of IM.

SMILES	skin thickening and joint mobility [1]	knee joint flexion contractures ([2]; Patient 1, off IM for 9 weeks, both knees)	knee joint flexion contractures ([2]; Patient 1, week 6 of IM, with physical therapy)	knee joint flexion contractures ([2]; Patient 1, week 15 of IM, with physical therapy)	knee joint flexion contractures ([2]; Patient 2, after discontinuing IM, none when they began IM)	staining for type I procollagen in skin biopsy ([3]; Patient 1, after 15 weeks of IM versus before)	fibrosis in skin biopsy ([3]; Patient 1, after 15 weeks of IM versus before, hematoxylin & eosin)	type I procollagen+ cells in the upper dermis ([3]; Patient 1, after IM treatment versus before)	mRSS ([4]; Patient 1, after oral IM 400 mg daily over 15 weeks)	mRSS ([4]; Patient 1, after subsequent 9 weeks without IM)	mRSS ([4]; Patient 1, baseline before oral IM 400 mg daily, maximum total score 51)	mRSS ([4]; Patient 1, within 5 weeks of resuming oral IM 400 mg daily (from 33))	mRSS ([4]; Patient 2, baseline before oral IM 400 mg daily)	mRSS ([4]; Patient 2, while taking oral IM 400 mg daily)	mRSS ([4]; Patient 2, within 5 weeks of stopping IM)	congestive heart failure [5]	adverse effect related to IM ([5]; corrected by dialysis treatment)
CC(=O)CCCCn1c(=O)c2c(ncn2C)n(C)c1=O [pentoxyphyline]	Decreased skin thickening and improved joint mobility																
Cc1ccc(NC(=O)c2ccc(CN3CCN(C)CC3)cc2)cc1Nc1nccc(-c2cccnc2)n1 [imatinib mesylate]		25 °	25 °	10 °	knee joint flexion contractures developed that gradually progressed over time	less staining for type I procollagen	less fibrosis	fewer	16	33	42	10	12	2	15	Neither patient developed congestive heart failure	fluid retention

— US20110136768A1 (THE GENERAL HOSPITAL CORPORATION, priority 2008, published 2011)
